# Molecular target: T1, Ketohexokinase (KHK) (Homo sapiens, UniProt P50053)
# T1 construct: His tag; made in house; host or cells: E. coli
# T1 sequence (P50053 1-298): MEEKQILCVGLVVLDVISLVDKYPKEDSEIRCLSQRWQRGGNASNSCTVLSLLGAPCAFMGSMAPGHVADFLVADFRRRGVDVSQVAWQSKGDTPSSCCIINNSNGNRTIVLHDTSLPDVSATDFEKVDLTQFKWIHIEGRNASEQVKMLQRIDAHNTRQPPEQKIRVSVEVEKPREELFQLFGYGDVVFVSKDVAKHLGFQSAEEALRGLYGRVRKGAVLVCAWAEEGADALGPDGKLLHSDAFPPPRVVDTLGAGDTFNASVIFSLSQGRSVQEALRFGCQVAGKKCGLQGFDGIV
# Assay: measurement of activity in vitro of ketohexokinase inhibitor (Transcreener ADP2 TR-FRET Red Assay, ADP produced)
# Type: biochemical
# Details: KHK pre-reacted with inhibitor 30 minutes, then substrate (ATP, fructose) 15 minutes; Ki by Morrison equation
# Method: Ketohexokinase (KHK) was expressed in E. Coli and purified using His tag. In order to measure the activity of the purified KHK, Transcreener ADP2 TR-FRET Red Assay kit of BellBrook Labs was used. A method of measuring the amount of ADP produced was used using TR-FRET after reacting a solution including a suitable concentration of KHK protein and ATP, and fructose for 15 minutes. In order to see the activity of a ketohexokinase (KHK) inhibitor, ketohexokinase (KHK) and a suitable concentration of an inhibitor were reacted first for 30 minutes, and then, reacted with a solution including the substrate of ketohexokinase (KHK) for 15 minutes. Then, reaction for TR-FRET was performed for 1 hour, and fluorescence was measured using Envision equipment of PerkinElmer. According to the optimization procedure of TR-FRET published by BellBrook Lab, the set value of the Envision equipment was determined.
# The result values by concentration of the ketohexokinase (KHK) inhibitor were determined as the ratio of a wavelength of 665 nm and a wavelength of 615nm. The 665/615 ratio value by concentration of each inhibitor was converted to ADP concentration based on ADP standard curve, and inhibition activity Ki value was obtained using Morrison equation by statistical software (Prizm). Meanwhile, the Ki value is a value representing the binding affinity of the inhibitor and an enzyme, and a lower value means better inhibitory activity.
row,Structure (SMILES),Ki
1,"C[C@H]1CCN1c1nc(N2C[C@@H]3[C@@H](CC(=O)N4CCNCC4)[C@@H]3C2)c2c(n1)C(F)(F)CC2 [Example 18, 2-((1R,5S,6R)-3-(7,7-difluoro-2-((S)-2-methylazetidin-1-yl)-6,7-dihydro-5H-cyclopenta[d]pyrimidin-4-yl)-3-azabicyclo[3.1.0]hexan-6-yl)-1-(piperazin-1-yl)ethan-1-one]",≤ 10 nM
2,C[C@H]1CCN1c1nc(-c2cnc(OCC(=O)N3CCNCC3)c(Cl)c2)c2c(n1)C(F)(F)CC2 [Example 38],≤ 10 nM
3,C[C@H]1CCN1c1nc(-c2ccc(CC(=O)O)cc2)c2c(n1)C(F)(F)CC2 [Example 29],10 to 100 nM
4,"C[C@H]1CCN1c1nc(-c2ccc(OCC(=O)N3CCCNCC3)c(Cl)c2)c2c(n1)C(F)(F)CC2 [Example 36, (S)-2-(2-(chloro-4-(7,7-difluoro-2-(2-methylazetidin-1-yl)-6,7-dihydro-5H-cyclopenta[d]pyrimidin-4-yl)phenoxy)-1-(1,4-diazepan-1-yl)ethan-1-one)]",≤ 10 nM
5,"C[C@H]1CCN1c1nc(N2CC(OCC(=O)N3CCNCC3)C2)c(Cl)c(C(F)(F)F)n1 [Example 2, (S)-2-((1-(5-chloro-2-(2-methylazetidin-1-yl)-6-(trifluoromethyl)pyrimidin-4-yl)azetidin-3-yl)oxy)-1-(piperazin-1-yl)ethan-1-one]",≤ 10 nM
6,"C[C@H]1CCN1c1nc(N2C[C@H]3C[C@@H](C2)[C@@H]3CC(=O)N2CCNCC2)c2c(n1)C(F)(F)CC2 [Example 21, 2-((1R,5S,6S)-3-(7,7-difluoro-2-((S)-2-methylazetidin-1-yl)-6,7-dihydro-5H-cyclopenta[d]pyrimidin-4-yl)-3-azabicyclo[3.1.0]heptan-6-yl)-1-(piperazin-1-yl)ethan-1-one]",≤ 10 nM
7,"CC1CCN1c1nc(N2CC3CC(C2)C3CC(=O)N2CCNCC2)c2c(n1)C(F)(F)CCC2 [Example 23, 2-((1R,5S,6S)-3-(8,8-difluoro-2-((S)-2-methylazetidin-1-yl)-5,6,7,8-tetrahydroquinazolin-4-yl)-3-azabicyclo[3.1.1]heptan-6-yl)-1-(piperazin-1-yl)ethan-1-one]",10 to 100 nM
8,C[C@H]1CCN1c1nc(N2CCN(C(=O)CC(=O)N3CCNCC3)CC2)c2c(n1)C(F)(F)CC2 [Example 15],≤ 10 nM
9,"C[C@H]1CCN1c1nc(N2CCN(CC(=O)N3CCNCC3)C(=O)C2)c2c(n1)C(F)(F)CC2 [Example 16, (S)-4-(7,7-difluoro-2-(2-methylazetidin-1-yl)-6,7-dihydro-5H-cyclopenta[d]pyrimidin-4-yl)-1-(2-oxo-2-(piperazin-1-yl)ethyl)piperazin-2-one]",≤ 10 nM
10,"C[C@H]1CCN1c1nc(N2CCN(CC(=O)N3CCNCC3)CC2)cc(C(F)(F)F)n1 [Example 11, (S)-2-(4-(2-(2-methylazetidin-1-yl)-6-(trifluoromethyl)pyrimidin-4-yl)piperazin-1-yl)-1-(piperazin-1-yl)ethan-1-one]",≤ 10 nM
11,"C[C@H]1CCN1c1nc(N2CCN(CC(=O)N3CCNCC3)C(=O)C2)cc(C(F)(F)F)n1 [Example 12, (S)-4-(2-(2-methylazetidin-1-yl)-6-(trifluoromethyl)pyrimidin-4-yl)-1-(2-oxo-2-(piperazin-1-yl)ethyl)piperazin-2-one]",10 to 100 nM
12,"C[C@H]1CCN1c1nc(-c2ccc(OCC(=O)N3CCNCC3)nc2)cc(C(F)(F)F)n1 [Example 39, (S)-2-((5-(2-(2-methylazetidin-1-yl)-6-(trifluoromethyl)pyrimidin-4-yl)pyridin-2-yl)oxy)-1-(piperazin-1-yl)ethan-1-one]",≤ 10 nM
13,C[C@H]1CCN1c1nc(N2CCC(OCC(=O)N3CCNCC3)CC2)cc(C(F)(F)F)n1 [Example 27],10 to 100 nM
14,"C[C@H]1CCN1c1nc(C2CCN(CC(=O)N3CCNCC3)CC2)c2c(n1)C(F)(F)CC2 [Example 17, (S)-2-(4-(7,7-difluoro-2-(2-methylazetidin-1-yl)-6,7-dihydro-5H-cyclopenta[d]pyrimidin-4-yl)piperidin-1-yl)-1-(piperazin-1-yl)ethan-1-one]",≤ 10 nM
15,C[C@H]1CCN1c1nc(-c2ccc(CC(=O)N3CCNCC3)nc2)cc(C(F)(F)F)n1 [Example 31],≤ 10 nM
16,"C[C@H]1CCN1c1nc(N2CC[C@H](OCC(=O)N3CCNCC3)C2)c2c(n1)C(F)(F)CC2 [Example 7, 2-(((2S,3R)-1-(7,7-difluoro-2-((S)-2-methylazetidin-1-yl)-6,7-dihydro-5H-cyclopenta[d]pyrimidin-4-yl)pyrrolidin-3-yl)oxy)-1-(piperazin-1-yl)ethan-1-one]",≤ 10 nM

row,Structure (SMILES),Ki
1,"CC(=O)N1CCN(C(=O)C[C@@H]2[C@@H]3C[C@H]2CN(c2nc(N4CC[C@@H]4C)nc4c2CCC4(F)F)C3)CC1 [Example 22, 1-(4-acetylpiperazin-1-yl)-2-((1R,5S,6S)-3-(7,7-difluoro-2-((S)-2-methylazetidin-1-yl)-6,7-dihydro-5H-cyclopenta[d]pyrimidin-4-yl)-3-azabicyclo[3.1.1]heptan-6-yl)ethan-1-one]",100 to 1000 nM
2,C[C@H]1CCN1c1nc(N2CC[C@H](CC(=O)N3CCNCC3)C2)c2c(n1)C(F)(F)CC2 [Example 9],≤ 10 nM
3,C[C@H]1CCN1c1nc(-c2ccc(OCC(=O)N3CCNCC3)nc2)c2c(n1)C(F)(F)CC2 [Example 37],≤ 10 nM
4,C[C@H]1CCN1c1nc(-c2ccc(OCC(=O)N3CCNCC3)cc2)c2c(n1)C(F)(F)CC2 [Example 32],10 to 100 nM
5,Cc1c(N2CCC(OCC(=O)N3CCNCC3)CC2)nc(N2CC[C@@H]2C)nc1C(F)(F)F [Example 28],10 to 100 nM
6,C[C@H]1CCN1c1nc(-c2ccc(OCC(=O)N3CCNCC3)c(Cl)c2)c2c(n1)C(F)(F)CC2 [Example 35],≤ 10 nM
7,"C[C@H]1CCN1c1nc(N2CC(OCC(=O)N3CCNCC3)C2)cc(C(F)(F)F)n1 [Example 1, (S)-2-((1-(2-(2-methylazetidin-1-yl)-6-(trifluoromethyl)pyrimidin-4-yl)azetidin-3-yl)oxy)-1-(piperazin-1-yl)ethan-1-one]",10 to 100 nM
8,"C[C@H]1CCN1c1nc(N2C[C@@H]3[C@H](C2)[C@H]3CS(=O)(=O)N2CCNCC2)c2c(n1)C(F)(F)CC2 [Example 25, 7,7-difluoro-2-((S)-2-methylazetidin-1-yl)-4-((1R,5S,6S)-6-((piperazin-1-ylsulfonyl)methyl)-3-azabicyclo[3.1.0]hexan-3-yl)-6,7-dihydro-5H-cyclopenta[d]pyrimidine]",≤ 10 nM
9,"C[C@H]1CCN1c1nc(N2CCC(OCC(=O)N3CCNCC3)CC2)c2c(n1)C(F)(F)CC2 [Example 10, (S)-2-((1-(7,7-difluoro-2-(2-methylazetidin-1-yl)-6,7-dihydro-5H-cyclopenta[d]pyrimidin-4-yl)piperidin-4-yl)oxy)-1-(piperazin-1-yl)ethan-1-one]",≤ 10 nM
10,C[C@H]1CCN1c1nc(N2CC(OCC(=O)N3CCNCC3)C2)c2c(n1)C(F)(F)CCC2 [Example 4],10 to 100 nM
11,"Cc1c(N2CC(OCC(=O)N3CCNCC3)C2)nc(N2CC[C@@H]2C)nc1C(F)(F)F [Example 26, (S)-2-((1-(5-methyl-2-(2-methylazetidin-1-yl)-6-(trifluoro)pyrimidin-4-yl)azetidin-3-yl)oxy)-1-(piperazin-1-yl)ethan-1-one]",≤ 10 nM
12,"C[C@H]1CCN1c1nc(N2CC[C@H](OCC(=O)N3CCNCC3)C2)cc(C(F)(F)F)n1 [Example 6, 2-(((S)-1-(2-((S)-2-methylazetidin-1-yl)-6-(trifluoromethyl)pyrimidin-4-yl)pyrrolidin-3-yl)oxy)-1-(piperazin-1-yl)ethan-1-one]",100 to 1000 nM
13,"C[C@H]1CCN1c1nc(N2C[C@@H]3[C@@H](CC(=O)N4CCNC(=O)C4)[C@@H]3C2)c2c(n1)C(F)(F)CC2 [Example 20, 4-(2-((1R,5S,6R)-3-(7,7-difluoro-2-((S)-2-methylazetidin-1-yl)-6,7-dihydro-5H-cyclopenta[d]pyrimidin-4-yl)-3-azabicyclo[3.1.0]hexan-6-yl)acetyl)piperazin-2-one]",≤ 10 nM
14,C[C@H]1CCN1c1nc(-c2cc(F)c(OCC(=O)N3CCNCC3)c(F)c2)c2c(n1)C(F)(F)CC2 [Example 34],≤ 10 nM
15,"C[C@H]1CCN1c1nc(N2CCN(CC(=O)N3CCNCC3)CC2)c2c(n1)C(F)(F)CC2 [Example 13, (S)-2-4-(7,7-difluoro-2-(2-methylazetidin-1-yl)-6,7-dihydro-5H-cyclopenta[d]pyrimidin-1-yl)-1-(piperazin-1-yl)ethan-1-one]",≤ 10 nM
16,"C[C@H]1CCN1c1nc(N2CC(OCC(=O)N3CCNCC3)C2)c2c(n1)C(F)(F)CC2 [Example 3, (S)-2-((1-(7,7-difluoro-2-(2-methylazetidin-1-yl)-6,7-dihydro-5H-cyclopenta[d]pyrimidin-4-yl)azetidin-3-yl)oxy)-1-(piperazin-1-yl)ethan-1-one]",≤ 10 nM

# From patent publication EP4434982A1, “(S)-2-(2-METHYLAZETIDIN-1-YL)PYRIMIDINE DERIVATIVE AND PHARMACEUTICAL COMPOSITION COMPRISING SAME” (LG Chem, Ltd., priority 2021, dated 2023)
